{"source": "patent US12263139B2", "about": "“Use of cannabidiol in the treatment of tuberous sclerosis complex” (Jazz Pharmaceuticals Research UK Limited, priority 2017, dated 2025)", "key": {"AML 621-101 cells [1]": {"test_system": "AML 621-101 cells", "assay": "Wound healing assay in AML cells", "type": "cell-based", "description": "(§1) (i) Angiomyolipomas (AML) cells derived from a Tuberous Sclerosis Complex patient (621-101 cell-line), with a known loss of function of TSC2. […] Zeocin™ was purchased from LifeTechnologies (cat no: R25001) and was used to originally generate the stable cell line (by Prof. Lisa Henske) over two weeks of Zeocin™ selection and then for continued maintenance of the cells in tissue culture (at 100 μg/ml).\n(§2) Tsc2−/− and Tsc2+/+ cell lines were cultured and maintained in DMEM supplemented with 10% (v/v) FBS and 1% (v/v) penicillin-streptomycin in a humidified incubator (5% CO2 at 37° C.). The AML −/− cell lines were cultured and maintained in DMEM supplemented with 15% (v/v) FBS and 1% (v/v) penicillin-streptomycin in a humidified incubator (5% CO2 at 37° C.). For hypoxia, cells were put into a Binder CB150 hypoxic chamber set at 1% 02 for the indicated time points\nThe stock concentration of CBD was made to 20 mM in dimethyl sulfoxide (DMSO). […] The final concentration of the DMSO in the cell culture medium was at a maximum level of 0.05% (v/v).\nCells were seeded in 60 mm plates and left to reach 100% confluency. Cells were then synchronised in 1% (v/v) FBS DMEM for 24 h and “wounded” with a pipette tip. Dead cells were removed with PBS wash and then subsequently replaced with DMEM (10% (v/v) FBS). […]"}, "AML 621-101 cells [2]": {"test_system": "AML 621-101 cells", "assay": "Tumour spheroid growth (soft agar) assay in AML 621-101 cells", "type": "cell-based", "conditions": "10 μM CBD", "description": "as §1\nThe stock concentration of CBD was made to 20 mM in dimethyl sulfoxide (DMSO). CBD was added to culture media to final concentrations of either 5 μM or 10 μM, as indicated). The final concentration of the DMSO in the cell culture medium was at a maximum level of 0.05% (v/v).\nTwo-layered soft agar assays were carried out in 6-well plates. All cell lines were plated in complete DMEM media in 0.35% (v/v) agar at (3*10^5) over a 0.6% (v/v) agar layer. The agar was then overlaid with complete DMEM media and spheroids were grown for 14 days at 37° C. in 5% CO2. Media were changed twice a week and new drug was added to media. Pictures were taken using an inverted AMG EVOS microscope equipped with an Olympus camera. Volume of tumour spheroids was measured using ImageJ software."}, "HIF-1α protein [3]": {"test_system": "HIF-1α protein", "assay": "Western blot of hypoxia induced HIF-1α in Tsc2−/− MEFs", "type": "cell-based, mouse", "conditions": "CBD at 10 μM", "description": "as §2\n(§3) Cells were washed in Phosphate Buffered Saline (PBS) and then lysed directly in sample buffer (62.5 mM Tris HCL, 50 mM DTT, 2% SDS (w/v), 10% Glycerol (w/v), 0.1% Bromophenol blue (w/v) pH 7.6) and sonicated for 5×20 s cycles on full power (30 amplitude microns). Samples were boiled at 95° C. for 10 min. Lysates were resolved by SDS-PAGE and proteins were transferred to polyvinylidene difluoride membranes.\n(§4) Membranes were blocked in 5% (w/v) dry milk powder dissolved in Tris-buffered saline containing 0.1% (v/v) Tween, then probed with primary antibody and horse radish peroxidase-conjugated secondary antibody. Proteins were visualized using Enhanced Chemiluminescent solution and Hyperfilm. Antibodies towards ribosomal protein S6 (rpS6), phospho-rpS6 (Ser235/236) were purchased from Cell Signaling Technology. Anti-HIF-1α was obtained from BD transduction laboratories. Statistical Analysis […]"}, "HIF-1α protein [4]": {"test_system": "HIF-1α protein", "assay": "Western blot of hypoxia induced HIF-1α in AML 621-101", "type": "cell-based", "conditions": "CBD at 10 μM", "description": "as §2, §3, §4"}, "Miapaca": {"test_system": "Miapaca", "assay": "Drug combination assay (MTT, CalcuSyn) of Rad001 and CBD in Miapaca", "type": "cell-based, Homo sapiens", "description": "For the study of the synergism between Rad001 and CBD on pancreatic cell lines Miapaca was tested, the cells were seeded in 96-multiwell plates at the density of 3.8 10^3 cells/well. After 24 hr incubation at 37° C., the cells were treated with different concentrations of Rad001 and CBD. Different molar ratios between two drugs in different sequences of administration were tested, (Rad001 for 48 h and CBD for 72 h or Rad001 for 72 h and CBD for 48 h and in co-administration for 72 h.\nThe proliferative response was estimated by colorimetric 3-(4,5 di-methylthiazol-2-yl)-2,5-diphenyltetrazolium bromide (MIT) test. MTT conversion to formazan by metabolically viable cells was monitored by spectrophotometer at an optical density of 570 nm. Each data point represents the average of three separate experiments with each experiment containing four wells. Drug combination studies were based on concentration-effect curves generated as a plot of the fraction of unaffected (surviving) cells versus drug concentration after treatment.\nTo explore the relative contribution of each agent to the synergism equi-active doses of […] were tested (IC50). Assessment of synergy was performed quantitating drug interaction by Calcusyn computer program (Biosoft, Ferguson, MO). Combination index (CI) values of <1, 1, and >1 indicate synergy, additivity and antagonism, respectively.\nDose reduction index (DRI) representing the measure of how much the dose of each drug in a combination may be reduced at a given effect level compared with the doses of each drug alone.\nThe effects of the pharmacological combination between CBD and RAD001 on the proliferation MIAPACA cell lines, using MTT assay were studied. The data obtained were processed with dedicated program, CalcuSyn (Chou and Talalay, Biosoft, Oregon, USA), which measures synergism.\nThe specific contribution of CBD and Rad001 on the cytotoxic effect of the combination of drugs was analyzed by calculating the potentiation factor (PF) defined as the ratio of the IC50 of either CBD or Rad001 alone to the IC50 of CBD and Rad001 in combination. A higher PF indicates a greater cytotoxicity."}, "[5]": {"conditions": "TSC patients having focal onset seizures; cited from earlier work"}}, "data": [{"smiles": "C=C(C)[C@@H]1CCC(C)=C[C@H]1c1c(O)cc(CCCCC)cc1O", "note": "[CBD, Cannabidiol]", "values": [{"measurement": "reduction of wound closure", "setting": "AML 621-101 cells [1]; 20 μM CBD", "value": 60, "unit": "%"}, {"measurement": "reduction of wound closure", "setting": "AML 621-101 cells [1]; 5, 10 and 20 μM CBD, FIG. 1 (B)", "value": "effective at reducing wound closure"}, {"measurement": "tumour spheroid formation", "setting": "AML 621-101 cells [2]", "value": "sufficient to block tumour spheroid formation"}, {"measurement": "hypoxia induced expression of HIF-1α protein", "setting": "HIF-1α protein [3]", "value": "sufficient to block hypoxia induced expression of HIF-1α protein"}, {"measurement": "hypoxia induced expression of HIF-1α protein", "setting": "HIF-1α protein [4]", "value": "sufficient to block hypoxia induced expression of HIF-1α protein"}, {"measurement": "IC50", "setting": "Miapaca; Homo sapiens, MIA PaCa-2, Miapaca, 50% effect level, read-out: Dose of drug alone", "value": 3.6, "unit": "µM"}, {"measurement": "DRI50", "setting": "Miapaca; Miapaca, Rad/CBD combination, dose reduction index", "value": "CBD 7.1"}, {"measurement": "potentiation factor (PF)", "setting": "Miapaca; ratio of IC50 alone to IC50 of CBD and Rad001 in combination", "value": 8}, {"measurement": "treatment of refractory epilepsy", "setting": "[5]", "value": "beneficial"}]}]}
